The source of these data is patent EP0427693A1, “Method for azide displacement of alpha-triflates of 1,5-lactones” (MONSANTO COMPANY, priority 1989, dated 1991).

Assay type in all cases: biochemical
One test has as its system human α-mannosidases. The test can be described thus: Human liver glycosidase inhibition, α-mannosidases. The note with it: human liver glycosidases.
Another test has as its target T1, human liver α-fucosidase (Homo sapiens, UniProt P04066).
T1 construct: from tissue; host or cells: human liver
T1 sequence (P04066 32-466): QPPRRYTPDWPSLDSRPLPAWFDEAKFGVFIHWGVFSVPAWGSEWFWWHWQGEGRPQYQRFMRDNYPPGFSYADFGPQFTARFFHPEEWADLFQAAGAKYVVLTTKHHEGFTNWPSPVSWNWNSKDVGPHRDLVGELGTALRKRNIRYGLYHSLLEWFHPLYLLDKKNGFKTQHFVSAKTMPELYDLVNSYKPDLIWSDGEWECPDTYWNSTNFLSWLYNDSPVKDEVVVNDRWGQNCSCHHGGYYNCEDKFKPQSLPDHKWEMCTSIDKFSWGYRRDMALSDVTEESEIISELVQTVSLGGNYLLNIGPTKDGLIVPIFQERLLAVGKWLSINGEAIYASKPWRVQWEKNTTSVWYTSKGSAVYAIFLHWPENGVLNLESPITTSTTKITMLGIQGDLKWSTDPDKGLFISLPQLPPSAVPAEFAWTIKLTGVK
The test can be described thus: Human liver glycosidase inhibition, α-fucosidase. The note with it: for inhibition at 1000 µM: 1 mM concentration of inhibitor, hydrolysis of 4-umbelliferyl pyrranosides; for inhibition of α-fucosidase (in words): human liver glycosidases.

Test [1] concerns the target T2, human liver α-mannosidase (Neutral) (Homo sapiens, UniProt Q9NTJ4).
T2 construct: from tissue; host or cells: human liver
T2 sequence (Q9NTJ4 1-1040): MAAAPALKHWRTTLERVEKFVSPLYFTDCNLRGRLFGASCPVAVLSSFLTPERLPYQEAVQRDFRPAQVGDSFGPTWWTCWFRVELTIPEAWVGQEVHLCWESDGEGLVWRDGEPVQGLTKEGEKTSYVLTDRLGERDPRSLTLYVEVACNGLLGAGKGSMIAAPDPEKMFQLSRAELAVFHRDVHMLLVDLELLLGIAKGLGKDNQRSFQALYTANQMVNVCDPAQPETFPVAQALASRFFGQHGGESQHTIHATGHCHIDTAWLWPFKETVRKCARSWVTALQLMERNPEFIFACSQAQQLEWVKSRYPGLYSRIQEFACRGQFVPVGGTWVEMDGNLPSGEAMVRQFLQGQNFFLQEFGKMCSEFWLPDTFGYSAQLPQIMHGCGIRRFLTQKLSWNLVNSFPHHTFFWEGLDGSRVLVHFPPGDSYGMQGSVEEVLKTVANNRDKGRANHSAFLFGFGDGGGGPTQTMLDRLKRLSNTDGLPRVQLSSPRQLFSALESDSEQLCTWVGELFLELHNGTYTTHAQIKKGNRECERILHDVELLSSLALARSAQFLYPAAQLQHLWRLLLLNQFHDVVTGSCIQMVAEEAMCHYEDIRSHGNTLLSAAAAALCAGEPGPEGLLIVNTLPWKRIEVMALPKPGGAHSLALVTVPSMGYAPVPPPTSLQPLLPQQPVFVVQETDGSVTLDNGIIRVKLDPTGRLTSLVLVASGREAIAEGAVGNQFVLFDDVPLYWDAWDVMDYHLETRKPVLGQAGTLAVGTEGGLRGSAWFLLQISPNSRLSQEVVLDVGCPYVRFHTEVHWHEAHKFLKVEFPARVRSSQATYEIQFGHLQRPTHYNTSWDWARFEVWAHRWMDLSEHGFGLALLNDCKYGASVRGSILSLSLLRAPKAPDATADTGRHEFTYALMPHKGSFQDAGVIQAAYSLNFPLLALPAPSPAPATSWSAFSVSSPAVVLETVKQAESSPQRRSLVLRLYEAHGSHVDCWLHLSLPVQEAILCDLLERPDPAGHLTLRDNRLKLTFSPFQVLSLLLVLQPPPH
The test can be described thus: Human liver glycosidase inhibition, neutral α-mannosidase. The note with it: 1 mM concentration of inhibitor; hydrolysis of 4-umbelliferyl pyrranosides; read-out: % Inhibition α-Mannosidases Neutral.

Test [2] concerns the target T3, human liver α-mannosidase (Golgi II) (Homo sapiens, UniProt Q16706).
T3 construct: from tissue; host or cells: human liver
T3 sequence (Q16706 1-1144): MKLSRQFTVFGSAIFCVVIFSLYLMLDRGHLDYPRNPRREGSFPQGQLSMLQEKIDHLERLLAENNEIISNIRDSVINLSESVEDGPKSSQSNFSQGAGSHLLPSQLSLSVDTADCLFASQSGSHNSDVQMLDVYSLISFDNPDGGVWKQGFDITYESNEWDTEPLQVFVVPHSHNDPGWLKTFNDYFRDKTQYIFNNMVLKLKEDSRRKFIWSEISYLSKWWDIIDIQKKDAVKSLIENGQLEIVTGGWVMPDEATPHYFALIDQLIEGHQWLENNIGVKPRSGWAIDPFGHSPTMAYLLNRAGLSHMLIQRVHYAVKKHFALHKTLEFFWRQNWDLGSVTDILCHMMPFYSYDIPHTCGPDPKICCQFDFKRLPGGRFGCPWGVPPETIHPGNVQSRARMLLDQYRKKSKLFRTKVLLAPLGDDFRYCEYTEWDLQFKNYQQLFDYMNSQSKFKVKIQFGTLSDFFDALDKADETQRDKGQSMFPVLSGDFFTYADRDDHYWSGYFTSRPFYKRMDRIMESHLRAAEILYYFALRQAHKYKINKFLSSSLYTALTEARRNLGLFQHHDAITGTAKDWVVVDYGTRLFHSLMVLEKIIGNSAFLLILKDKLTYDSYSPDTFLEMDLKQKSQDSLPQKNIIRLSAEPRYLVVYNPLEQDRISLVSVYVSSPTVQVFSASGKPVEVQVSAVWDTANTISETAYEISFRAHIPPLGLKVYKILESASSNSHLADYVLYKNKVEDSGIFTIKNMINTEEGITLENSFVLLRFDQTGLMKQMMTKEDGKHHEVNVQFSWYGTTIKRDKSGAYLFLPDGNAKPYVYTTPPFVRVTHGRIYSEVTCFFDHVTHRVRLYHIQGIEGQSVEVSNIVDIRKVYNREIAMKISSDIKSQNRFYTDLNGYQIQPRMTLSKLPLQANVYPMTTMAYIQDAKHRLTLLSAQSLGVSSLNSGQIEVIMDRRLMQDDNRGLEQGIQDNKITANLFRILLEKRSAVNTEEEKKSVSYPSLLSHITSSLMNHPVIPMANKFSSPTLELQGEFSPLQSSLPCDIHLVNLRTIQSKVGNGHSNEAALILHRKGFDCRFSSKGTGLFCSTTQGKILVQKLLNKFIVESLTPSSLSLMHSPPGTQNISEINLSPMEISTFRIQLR
The test can be described thus: Human liver glycosidase inhibition, Golgi II α-mannosidase. To be noted: 1 mM concentration of inhibitor; hydrolysis of 4-umbelliferyl pyrranosides; read-out: % Inhibition α-Mannosidases Golgi II.

Test [3] addresses T4, human liver α-mannosidase (Lysosomal) (Homo sapiens, UniProt O00754).
T4 construct: from tissue; host or cells: human liver
T4 sequence (O00754 50-1011): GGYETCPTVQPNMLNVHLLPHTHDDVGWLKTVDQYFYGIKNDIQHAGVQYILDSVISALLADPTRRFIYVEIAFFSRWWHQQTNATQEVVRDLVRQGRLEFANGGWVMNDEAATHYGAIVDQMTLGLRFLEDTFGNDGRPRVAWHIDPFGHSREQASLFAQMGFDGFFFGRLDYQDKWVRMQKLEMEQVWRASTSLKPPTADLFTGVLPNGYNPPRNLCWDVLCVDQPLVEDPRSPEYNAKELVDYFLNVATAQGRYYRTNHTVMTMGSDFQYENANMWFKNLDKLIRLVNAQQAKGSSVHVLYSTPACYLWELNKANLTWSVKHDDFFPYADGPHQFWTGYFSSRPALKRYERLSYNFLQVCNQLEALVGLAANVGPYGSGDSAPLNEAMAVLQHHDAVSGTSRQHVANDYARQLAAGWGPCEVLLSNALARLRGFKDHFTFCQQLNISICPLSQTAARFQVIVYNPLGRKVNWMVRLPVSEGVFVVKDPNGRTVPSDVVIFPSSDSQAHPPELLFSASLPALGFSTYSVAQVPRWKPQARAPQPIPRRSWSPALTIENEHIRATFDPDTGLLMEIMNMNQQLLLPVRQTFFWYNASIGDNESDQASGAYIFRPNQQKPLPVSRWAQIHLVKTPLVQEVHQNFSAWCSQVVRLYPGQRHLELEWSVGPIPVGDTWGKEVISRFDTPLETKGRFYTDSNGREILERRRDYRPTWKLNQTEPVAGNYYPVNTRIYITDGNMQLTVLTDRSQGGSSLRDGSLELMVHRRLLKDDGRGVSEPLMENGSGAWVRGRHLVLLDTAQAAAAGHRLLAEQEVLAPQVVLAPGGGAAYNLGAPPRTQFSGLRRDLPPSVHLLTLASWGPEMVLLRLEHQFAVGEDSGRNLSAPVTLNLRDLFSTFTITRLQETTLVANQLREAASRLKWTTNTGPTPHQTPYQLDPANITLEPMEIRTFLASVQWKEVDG
The test can be described thus: Human liver glycosidase inhibition, lysosomal α-mannosidase. To be noted: 1 mM concentration of inhibitor; hydrolysis of 4-umbelliferyl pyrranosides; read-out: % Inhibition α-Mannosidases Lysosomal.

The structures appear in SMILES notation.

In the case of `OC[C@@H]1N[C@H](CO)[C@@H](O)[C@@H](O)[C@@H]1O` [6-Epi-homomannojirimycin, 2,6-dideoxy-2,6-imino-L-glycero-D-talo-heptitol], the “inhibition of α-mannosidases (in words)” value in the test on human α-mannosidases is reported as “did not inhibit any α-mannosidase”. In addition, the inhibition at 1000 µM against human liver α-fucosidase was determined as 96%; in test [1], 0%; in test [2], 0%; in test [3], 0%. Further, the “inhibition of α-fucosidase (in words)” value at human liver α-fucosidase is “powerful inhibitors”.

For `OC[C@H]1NC[C@@H](O)[C@@H](O)[C@@H]1O` [Deoxymannojirimycin, reference compound], the inhibition at 1000 µM was found to be 91% against human liver α-fucosidase, 21% in test [1], 45% in test [2] and 58% in test [3]. The “inhibition of α-fucosidase (in words)” value against human liver α-fucosidase is on record as “powerful inhibitors”.

Turning to `OC[C@H]1N[C@H](CO)[C@@H](O)C(O)[C@@H]1O` (stereo partly drawn) [Homomannojirimycin, 2,6-dideoxy-2,6-imino-D-glycero-D-talo-heptitol], the inhibition at 1000 µM turned out to be 29% on human liver α-fucosidase, 30% in test [1], 56% in test [2] and 49% in test [3]. Further, the “inhibition of α-fucosidase (in words)” value against human liver α-fucosidase is “only a weak inhibitor”.

Usually inhibition stands for the drop in the measured response relative to a control, in per cent.
